The record followed here is ChEMBL document CHEMBL4177599, “The antitubercular activity of various nitro(triazole/imidazole)-based compounds” (Bioorg Med Chem, 2017).

Series [1] relates to Mycobacterium tuberculosis. The series can be described thus: Antitubercular activity against Mycobacterium tuberculosis H37Rv ATCC 27294 after 5 days under aerobic condition. The series is classed as functional, organism-based. The note with it: for IC50 / IC90 / MIC: H37Rv ATCC 27294, 120 h.
Series [2] relates to Mycobacterium tuberculosis. The series can be described thus: Antitubercular activity against Mycobacterium tuberculosis H37Rv ATCC 27294 after 10 days under low oxygen condition followed by incubation under aerobic condition for 28 hrs by LORA. It counts as functional, organism-based.
Series [3] concerns Mycobacterium tuberculosis. Nature of the series: Bactericidal activity against Mycobacterium tuberculosis H37Rv ATCC 27294 assessed as concentration required for 2 log kill after 21 days under aerobic condition by colony forming assay. The series is classed as functional. The settings on record: for MBC: H37Rv ATCC 27294, 504 h.
Another series concerns THP-1. Nature of the series: Cytotoxicity against human THP1 cells after 3 days by luminescence assay. It counts as cell-based. The note with it: THP-1, 72 h.
In another series the test system is L6. The series can be described thus: Cytotoxicity against rat L6 cells after 2 days by CellTiter-Glo luminescent cell viability assay. It counts as ADME, cell-based. The settings on record: L6, 48 h. A general note: ATP-based viability assays read luminescence as a measure of living cells.
Series [4] relates to Mycobacterium tuberculosis. Nature of the series: Antitubercular activity against luxABCDE expressing Mycobacterium tuberculosis H37Rv infected in human THP1 cells measured after 3 days by luminescence assay. The series is classed as functional, organism-based. The settings on record: THP-1, 72 h.
The nature of series [5]: Protein binding in human plasma at 5 uM after 4 hrs by LC-MS/MS analysis.
A short description of series [6]: Half life in human liver S9 microsomes at 1 uM in presence of NADPH by LC-MS/MS analysis.
Series [7] can be described thus: Half life in human liver S9 microsomes at 1 uM in absence of NADPH by LC-MS/MS analysis.
In another series the test system is HepG2. The series can be described thus: Cytotoxicity against human HepG2 cells at 100 uM after 3 days by CellTiter-Glo luminescent cell viability assay. It counts as cell-based. The settings on record: HepG2, 72 h.
Series [8] is described as follows: Intrinsic clearance in human liver S9 microsomes at 1 uM in presence of NADPH by LC-MS/MS analysis. It counts as ADME, S9 microsome. The settings on record: read-out: CLH.
Series [9] is described as follows: Intrinsic clearance in human liver S9 microsomes at 1 uM in absence of NADPH by LC-MS/MS analysis. The note with it: read-out: CLH. It counts as ADME, S9 microsome.
A short description of series [10]: Apparent permeability of the compound across apical side to basolateral side in human Caco2 cells monolayer at 10 uM after 1 hr by LC-MS/MS analysis. The note with it: Caco-2. The series is classed as ADME, cell-based. (Caco-2 cells form a polarised layer with tight junctions and transporters.)
A short description of series [11]: Apparent permeability of the compound across basolateral side to apical side in human Caco2 cells monolayer at 10 uM after 1 hr by LC-MS/MS analysis. The note with it: Caco-2. It counts as ADME, cell-based.
A short description of series [12]: Fraction unbound in human plasma at 5 uM after 4 hrs by LC-MS/MS analysis. It counts as ADME, cell-free.
A short description of series [13]: in vitro. The note with it: human, Caco-2.
Description: Apparent permeability of the compound across apical side to basolateral side in human Caco2 cells monolayer at 10 uM after 2 hrs by LC-MS/MS analysis
A short description of series [14]: in vitro. The note with it: human, Caco-2. The source holds these as a separate data set.
Description: Apparent permeability of the compound across basolateral side to apical side in human Caco2 cells monolayer at 10 uM after 2 hrs by LC-MS/MS analysis
Series [15] is described as follows: in vitro. The settings on record: human, Caco-2. This is another data set of the same source.
Description: Efflux ratio of apparent permeability from basolateral to apical over apical to basolateral side in human Caco2 cells monolayer at 10 uM after 2 hrs by LC-MS/MS analysis
A short description of series [16]: in vitro. The note with it: human, THP1 cells.
Description: Selectivity index, ratio of IC50 for human THP1 cells to IC50 for Mycobacterium tuberculosis H37Rv under aerobic condition
The nature of series [17]: in vitro. The note with it: human, Caco-2. The source holds these as a separate data set.
Description: Efflux ratio of apparent permeability from basolateral to apical over apical to basolateral side in human Caco2 cells monolayer at 10 uM after 1 hr by LC-MS/MS analysis
The test system of series [18] is Mycobacterium tuberculosis. The series can be described thus: Potency index, ratio of compound MIC to metronidazole MIC for antitubercular activity against Mycobacterium tuberculosis H37Rv ATCC 27294 under low oxygen condition. It counts as functional.
Another series relates to Vero. Nature of the series: Cytotoxicity against African green monkey Vero cells after 2 days by CellTiter-Glo luminescent cell viability assay. It counts as ADME, cell-based. The note with it: Chlorocebus sabaeus, 48 h.
The subject of series [19] is Mycobacterium tuberculosis. Nature of the series: Antitubercular activity against luxABCDE expressing Mycobacterium tuberculosis H37Rv infected in mouse J774 macrophages assessed as log reduction in bacterial colonies at 7.2 uM measured after 4 days under aerobic condition by luminescence assay. The series is classed as functional.
Series [20] relates to Mycobacterium tuberculosis. Nature of the series: Antitubercular activity against luxABCDE expressing Mycobacterium tuberculosis H37Rv infected in mouse J774 macrophages assessed as log reduction in bacterial colonies at 200 uM measured after 4 days under aerobic condition by luminescence assay. It counts as functional.
The subject of series [21] is Mycobacterium tuberculosis. The series can be described thus: Potency index, ratio of compound MIC to ethambutol MIC for antitubercular activity against Mycobacterium tuberculosis H37Rv ATCC 27294 under aerobic condition. The series is classed as functional.

As a reminder, the IC50 is the midpoint of a concentration-inhibition curve. In general, IC90 refers to the concentration needed for an effect of 90%. In general, MIC refers to the smallest concentration in the dilution series that meets the test's criterion for growth inhibition. What is called MBC is the smallest concentration meeting the test's criterion for killing. Usually fraction unbound stands for the share of the substance not bound to proteins or other matrix. As usually defined, the half-life is the time needed for the level to fall by half in the phase considered. One may read the Papp A→B as how fast a substance crosses the layer from the apical side. For orientation: Papp B→A means how fast a substance crosses the layer from the basolateral side. As usually defined, the efflux ratio is the permeability from basolateral to apical divided by that in the opposite direction, in the common usage.

Values after ≈ are worked out from the molar mass of the structure shown.

Regarding `O=C(CCn1cnc([N+](=O)[O-])n1)Nc1cccc(-c2ccccc2)c1`, the IC50 in [1] is 3.6 to 6.1 µM; in series [2], 7.8 µM; in the series on THP-1 it was more than 50 µM; in the series with L6, 36 µM; in series [4] it was 2.3 µM; with HepG2 it was more than 100 µM. The IC90 in series [1] is 6.8 to 7.1 µM; in [2], 44 µM; in series [4], 4.1 µM. The MIC was 6.8 to 8.4 µM (≈ 2.29 to 2.83 µg/mL) in series [1] and more than 200 µM in series [2]. For the same molecule, the Activity entry in series [1] (TDE = time-dependent effect) and in [3] (TDE = time-dependent effect) was “Tde” throughout. Also, the MBC in series [3] is 6.8 µM (≈ 2.29 µg/mL). For the same molecule, the fraction unbound at 4 h, 5 µM in series [5] is 0.042; in series [12] it was 0.033. In addition, the half-life at 1 µM in series [6] and in series [7] was more than 3 h throughout. For the same molecule, the microsomal CLint at 1 µM in series [8] and in series [9] was less than 12.8 µL/min/mg each time. In series [10], the Papp A→B at 1 h, 10 µM is 22.2 ×10⁻⁶ cm/s. Besides, in series [11], the Papp B→A at 1 h, 10 µM was determined as 17.5 ×10⁻⁶ cm/s. The Papp A→B at 2 h, 10 µM in “in vitro [13]” came to 18 ×10⁻⁶ cm/s. Further, in the series “in vitro [14]”, the Papp B→A at 2 h, 10 µM was found to be 7 ×10⁻⁶ cm/s. Moreover, in the series “in vitro [15]”, the efflux ratio at 2 h, 10 µM is 0.39. Besides, the selectivity ratio in “in vitro [16]” is more than 10. In “in vitro [17]”, the efflux ratio at 1 h, 10 µM was found to be 0.79.
Consider `O=C(NCCCCn1cnc([N+](=O)[O-])n1)c1sc2ccccc2c1Cl`, for which the IC50 was 4 µM in series [1], 35.5 µM in [2], more than 100 µM with Vero and more than 264 µM in the series on L6. In addition, the IC90 in series [1] stood at 6.4 µM; in [2], 61.4 µM. Moreover, the MIC in [1] stood at 6.1 µM (≈ 2.32 µg/mL); in [2] it was 21.5 µM (≈ 8.17 µg/mL). Further, the MBC in series [3] turned out to be 7.2 µM (≈ 2.73 µg/mL). The Ratio in series [18] was 6 - 9. In [19], the “log(activity)” value turned out to be 2.2.
With `O=C(Cn1cnc([N+](=O)[O-])n1)N1CCN(Cc2ccc(Cl)c(Cl)c2)CC1`, the IC50 in series [1] is 5.9 µM; in [2], 17 µM; with THP-1, more than 50 µM; in [4], 4 µM; with HepG2 it was 77 µM. The IC90 in series [1] came to 7.7 µM; in [2], 47 µM; in series [4], 6.7 µM. Further, the MIC came to 6.6 µM (≈ 2.63 µg/mL) in [1] and 140 µM (≈ 55.9 µg/mL) in [2]. In series [3], the MBC worked out at 5.6 µM (≈ 2.24 µg/mL). In [5], this molecule had a fraction unbound at 4 h, 5 µM of 0.076. The figures for the half-life at 1 µM in series [6] and in [7] were 1.2 h and 2.9 h, respectively. The Papp A→B at 2 h, 10 µM in “in vitro [13]” turned out to be 16.3 ×10⁻⁶ cm/s. Besides, in the series “in vitro [14]”, the Papp B→A at 2 h, 10 µM was found to be 14.8 ×10⁻⁶ cm/s. In addition, in “in vitro [16]”, the selectivity ratio was more than 10.
In [1], `O=C(Cn1cnc([N+](=O)[O-])n1)Nc1ccc(Oc2ccc(Cl)cc2)cc1` had an IC50 of 51 µM, an IC90 of 100 µM and an MIC of 94 µM (≈ 35.1 µg/mL). Also, in [2], half-maximal inhibition (IC50) was put at 13 µM, the IC90 was determined as 94 µM and the MIC is more than 200 µM. The MBC in series [3] was determined as 100 µM (≈ 37.4 µg/mL). The molecule further showed an IC50 in the series with Vero of 19 µM. In [20], the “log(activity)” value stood at 2.6.
`O=C(CCn1cnc([N+](=O)[O-])n1)Nc1cccc(OCc2ccccc2)c1`: the Activity entry in [1] and in [3] was “Dose-dependent effect” in each case. Further, the IC50 in series [1] was 1.7 to 3.2 µM; in series [2] it was 9.2 µM; in the series with THP-1, more than 50 µM; in the series on L6, 40 µM; in series [4], 1.3 µM; in the series on HepG2 it was more than 100 µM. Moreover, the concentration for an effect of 90% (IC90) in series [1] is 2.8 to 3.6 µM; in series [2], 41 µM; in [4] it was 2.9 µM. For the same molecule, the MIC in [1] was 3 to 4.1 µM (≈ 1.1 to 1.51 µg/mL); in [2] it was more than 200 µM. Further, the MBC in series [3] stood at 0.75 µM (≈ 0.276 µg/mL). The Ratio in series [21] is 2. In addition, the fraction unbound at 4 h, 5 µM in series [5] is 0.033; in series [12], 0.042. In addition, the half-life at 1 µM in series [6] was 2.07 h; in series [7], more than 3 h. In addition, the microsomal CLint at 1 µM in series [8] was 18.7 µL/min/mg; in [9], less than 12.8 µL/min/mg. The Papp A→B at 1 h, 10 µM in series [10] was determined as 22.2 ×10⁻⁶ cm/s. In series [11], the Papp B→A at 1 h, 10 µM came out at 17.6 ×10⁻⁶ cm/s. Moreover, the Papp A→B at 2 h, 10 µM in the series “in vitro [13]” is 15.8 ×10⁻⁶ cm/s. The Papp B→A at 2 h, 10 µM in “in vitro [14]” came to 10.5 ×10⁻⁶ cm/s. The efflux ratio at 2 h, 10 µM in “in vitro [15]” is 0.67. For the same molecule, the selectivity ratio in the series “in vitro [16]” was more than 10. In addition, the efflux ratio at 1 h, 10 µM in the series “in vitro [17]” came out at 0.79.
As for `O=C(CCn1cnc([N+](=O)[O-])n1)Nc1ccc(Oc2ccc(Cl)cc2)cc1`, the IC50 in series [1] is 15 to 22 µM; in [2], 25 µM; in the series with THP-1 it was 14 µM; with L6, 17 µM; in series [4], 3.4 µM. Besides, the IC90 in [1] was 22 to 24 µM; in series [2], 27 µM; in series [4] it was 10 µM. In addition, the MIC is 24 to 26 µM (≈ 9.31 to 10.1 µg/mL) in [1] and 30 µM (≈ 11.6 µg/mL) in series [2]. The Activity result in [1] (TDE = time-dependent effect) and in series [3] (TDE = time-dependent effect) was “Tde” throughout. Moreover, the MBC in series [3] was found to be 20 µM (≈ 7.76 µg/mL). Moreover, the Ratio in series [18] is listed as 6 - 9.
Consider `COc1ccc2c(c1)[C@]13CCCC[C@@H]1[C@H](C2)N(C)CC3` [DEXTROMETHORPHAN], for which the half-life at 1 µM in [6] was 1.54 to 1.59 h. Also, the microsomal CLint at 1 µM in series [8] is 24.2 µL/min/mg; in series [9], less than 12.8 µL/min/mg.
